Data set [1] can be described thus: Inhibition of Saccharomyces cerevisiae CTS1 incubated for 70 mins by fluorescence method.
The target in another data set is Endochitinase A1 (Aspergillus fumigatus, UniProt Q873Y0). The experiment in a line: Inhibition of Aspergillus fumigatus chiA1 (Arg28 to His337) expressed in Pichia pastoris incubated for 70 mins using 4MU-NAc3 as substrate by fluorescence method.
The nature of data set [2]: Inhibition of Candida albicans GFA1 using D-Fru6P and L-glutamine as substrate incubated for 30 mins by Elson-Morgan method.
In data set [3] the test system is Candida albicans. The experiment in a line: Antifungal activity against Candida albicans ATCC 10231 by CLSI-based serial dilution method. Type of data set: functional.
For the next data set, the system named is Cryptococcus neoformans. Put plainly: Antifungal activity against Cryptococcus neoformans H99 incubated for 72 hrs by CLSI M27A method. Type of data set: functional. Particulars: var grubii H99.
Data set [4] in a line: Inhibition of Cryptococcus neoformans (H99) 1,3-beta-glucan synthase component FKS1 using UDP-[14C]glucose as substrate. More on the design: species or system Cryptococcus neoformans var. grubii H99.
Data set [5] deals with Candida parapsilosis. Put plainly: Antifungal activity against Candida parapsilosis incubated for 24 hrs by CLSI method. Format: functional. Particulars: Lodderomyces parapsilosis.
Data set [6] deals with Candida tropicalis. Put plainly: Antifungal activity against Candida tropicalis incubated for 24 hrs by CLSI method. Type of data set: functional.
For data set [7], the system named is Candida albicans. The experiment in a line: Antifungal activity against Candida albicans incubated for 24 hrs by CLSI method. Type of data set: functional.
Data set [8] relates to Pichia kudriavzevii. The experiment in a line: Antifungal activity against Candida krusei incubated for 24 hrs by CLSI method. Format: functional.
Data set [9] concerns Nakaseomyces glabratus. Put plainly: Antifungal activity against Candida glabrata incubated for 24 hrs by CLSI method. Type of data set: functional.
Data set [10] is described as follows: Inhibition of Beta-1,3-glucan synthase in wild type Schizosaccharomyces pombe.
Data set [11] in a line: Inhibition of Beta-1,3-glucan synthase in Schizosaccharomyces pombe pbr1-8.
Data set [12] can be described thus: Inhibition of Beta-1,3-glucan synthase in Schizosaccharomyces pombe pbr1-6.
The subject of a further data set is Aspergillus fumigatus. Put plainly: Antifungal activity against Aspergillus fumigatus CF1083 infected in iv dosed mouse model of pulmonary aspergillosis administered once daily for 4 days and measured on day 14. Format: functional. Particulars: 336 h, time 14 day.
Data set [13] deals with Candida albicans. The experiment in a line: Antifungal activity against Candida albicans K335 by agar incorporation method. Format: functional.
The subject of data set [14] is Candida albicans. Put plainly: Antifungal activity against Candida albicans K341 by agar incorporation method. Format: functional.
The subject of data set [15] is Candida albicans. Put plainly: Antifungal activity against Candida albicans K1082 by agar incorporation method. Format: functional.
For data set [16], the system named is Candida albicans. Put plainly: Antifungal activity against Candida albicans K1133 by agar incorporation method. Type of data set: functional.
In data set [17] the test system is Meyerozyma guilliermondii. The experiment in a line: Antifungal activity against Candida guilliermondii K334 by agar incorporation method. Type of data set: functional.
Data set [18] relates to Candida tropicalis. The experiment in a line: Antifungal activity against Candida tropicalis K337 by agar incorporation method. Format: functional.
Data set [19] deals with Candida tropicalis. The experiment in a line: Antifungal activity against Candida tropicalis K1155 by agar incorporation method. Format: functional.
In data set [20] the test system is Candida parapsilosis. Put plainly: Antifungal activity against Candida parapsilosis K332 by agar incorporation method. Format: functional. Particulars: Lodderomyces parapsilosis.
In data set [21] the test system is Candida parapsilosis. Put plainly: Antifungal activity against Candida parapsilosis K1154 by agar incorporation method. Format: functional. Particulars: Lodderomyces parapsilosis.
In the next data set the test system is Cyberlindnera jadinii. Put plainly: Antifungal activity against Candida utilis K482 by agar incorporation method. Particulars: Williopsis jadinii. Format: functional.
The subject of data set [22] is Pichia kudriavzevii. The experiment in a line: Antifungal activity against Candida krusei K1153 by agar incorporation method. Type of data set: functional.
The test system of data set [23] is Nakaseomyces glabratus. Put plainly: Antifungal activity against Candida glabrata DSM 11226 by CLSI-based serial dilution method. Format: functional.
Data set [24] in a line: Antifungal activity against Candida arborea KKP319 by CLSI-based serial dilution method. Format: functional.
For data set [25], the system named is Pichia kudriavzevii. Put plainly: Antifungal activity against Candida krusei DSM 6128 by CLSI-based serial dilution method. Type of data set: functional.
A short description of data set [26]: Inhibition of Candida albicans GFA1 using D-Fru6P and L-glutamine as substrate by absorbance method.
Data set [27] relates to Candida albicans. The experiment in a line: Antifungal activity against Candida albicans A9540 infected in iv dosed ICR mouse assessed as protection against fungus-induced lethal infection dosed once immediately following fungal challenge and measured on day 20 post infection. Type of data set: functional. Particulars: 480 h, time 20 day, read-out: PD50.
A short description of data set [28]: Half life in Beagle dog at 1.4 mg/kg, iv measured up to 72 hrs by LC-MS/MS analysis. Particulars: in vivo. Format: ADME, organism-based, Canis lupus familiaris.
Data set [29] is described as follows: Half life in human at 50 mg by liquid chromatography-tandem mass spectrometry method. Particulars: in vivo. Format: ADME.
Data set [30] in a line: Elimination half life life in iv dosed human. Particulars: in vivo.

Structures are written as SMILES. pIC50, pKi: −log10 of the molar value. Values after ≈ are worked out from the molar mass of the structure shown. Numbered stars: 1 amine (or outer) side, 2 acyl side, 3 side chain; on linkers, the order of the positions; unused ones are H or OH. Bridge positions count the residues as written; N and C are the ends. Square brackets hold non-standard residues; d marks the D form. Peptide text beside a SMILES is read from it. * marks the point of attachment. hTyr(3S-OH,4S-OH,3'-OSO3H) = N[C@H](C(=O)O)[C@H](O)[C@@H](O)c1ccc(O)c(OS(=O)(=O)O)c1; Orn(4R-OH,5R-OH) = O=C([C@H](C[C@@H](O)[C@@H](O)N[*:3])N[*:1])[*:2]; Pro(3S-OH,4S-Me) = C[C@H]1CN[C@H](C(=O)O)[C@H]1O; X1 = CCCCCOc1ccc(-c2cc(-c3ccc(C(=O)*)cc3)no2)cc1; Gln(3R-OH) = NC(=O)C[C@@H](O)[C@H](N)C(=O)O; Hyp = O=C(O)[C@@H]1C[C@@H](O)CN1

For orientation: pIC50 means the negative decadic logarithm of the IC50, by convention in mol/L. A lower pIC50 goes with a large IC50. A word on the MIC: it is the least concentration at which growth counts as inhibited. Read a high MIC as weaker potency. For orientation: pKi means the negative decadic logarithm of the Ki, by convention in mol/L. Lower therefore signals a high Ki. One may read the MIC90 as an inhibitory concentration at the 90% level, which refers to growth in some studies and to a panel of isolates in others. A low value points to greater potency. As usually defined, the IC50 is the concentration at which inhibition is half-maximal. A low value points to greater potency. What is called half-life is the time in which the quantity being followed falls by half. Lower therefore signals rapid decline.

Sequence of Endochitinase A1 (Q873Y0 whole entry): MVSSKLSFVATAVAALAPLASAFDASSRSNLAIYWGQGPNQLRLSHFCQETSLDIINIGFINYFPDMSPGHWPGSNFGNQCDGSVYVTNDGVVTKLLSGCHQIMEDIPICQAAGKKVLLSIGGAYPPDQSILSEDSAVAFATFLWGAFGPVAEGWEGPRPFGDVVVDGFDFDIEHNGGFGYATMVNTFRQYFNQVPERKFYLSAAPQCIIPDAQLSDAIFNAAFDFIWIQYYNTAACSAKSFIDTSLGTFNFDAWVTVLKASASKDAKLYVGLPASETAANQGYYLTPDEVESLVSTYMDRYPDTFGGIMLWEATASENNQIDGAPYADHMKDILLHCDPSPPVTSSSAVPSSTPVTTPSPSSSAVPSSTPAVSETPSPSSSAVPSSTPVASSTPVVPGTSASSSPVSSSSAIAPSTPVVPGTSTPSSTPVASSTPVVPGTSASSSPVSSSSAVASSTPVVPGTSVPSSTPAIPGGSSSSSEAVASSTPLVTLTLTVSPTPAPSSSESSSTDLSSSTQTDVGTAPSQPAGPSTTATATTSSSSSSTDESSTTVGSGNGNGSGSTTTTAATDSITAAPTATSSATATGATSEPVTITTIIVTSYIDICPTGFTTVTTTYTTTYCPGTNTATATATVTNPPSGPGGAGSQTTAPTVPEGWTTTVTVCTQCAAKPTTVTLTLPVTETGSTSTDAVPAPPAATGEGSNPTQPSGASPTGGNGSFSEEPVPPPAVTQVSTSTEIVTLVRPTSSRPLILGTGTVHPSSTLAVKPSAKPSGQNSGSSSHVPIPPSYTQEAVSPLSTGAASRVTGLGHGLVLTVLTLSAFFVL

On to `Cc1ccc(OCC(O)CNC2Cc3ccccc3C2)cc1C` (stereo unspecified), for which the negative logarithm of the IC50 (pIC50) in data set [1] is 5.62; against Endochitinase A1 it was 5.04.
Compound `N[C@@H](CO)[C@@H](O)[C@H](O)[C@H](O)CS(=O)(=O)O` gave a negative-log IC50 (pIC50) in data set [2] of 3.89. Besides, the MIC against Candida albicans [3] worked out at 1000 µg/mL (≈ 4080 µM).
In the case of `CC[C@H](C)C[C@H](C)CCCCCCCCC(=O)N[C@H]1C[C@@H](O)[C@@H](NCCN)NC(=O)[C@@H]2[C@@H](O)CCN2C(=O)[C@H]([C@H](O)CCN)NC(=O)[C@H]([C@H](O)[C@@H](O)c2ccc(O)cc2)NC(=O)[C@@H]2C[C@@H](O)CN2C(=O)[C@H]([C@@H](C)O)NC1=O` [CASPOFUNGIN], in the data set on Cryptococcus neoformans, the lowest concentration to inhibit growth (MIC) was 16 µg/mL (≈ 14.6 µM). The negative-log Ki (pKi) in [4] was 6.77. Further, the MIC90 against Candida parapsilosis [5] amounted to 0.5 µg/mL (≈ 0.457 µM); with Candida tropicalis [6], 1 µg/mL (≈ 0.915 µM); against Candida albicans [7] it was 2 µg/mL (≈ 1.83 µM); in the data set with Pichia kudriavzevii [8], 1 µg/mL (≈ 0.915 µM); in the data set on Nakaseomyces glabratus [9], 16 µg/mL (≈ 14.6 µM). In addition, the half-maximal inhibitory concentration (IC50) in data set [10] worked out at 0.3 µg/mL (≈ 0.274 µM); in data set [11], 250 µg/mL (≈ 229 µM); in data set [12], 150 µg/mL (≈ 137 µM). Moreover, the ED50 in the data set on Aspergillus fumigatus is over 15 mg/kg.
`CCC(O)/C=C/C=C\C=C\C(=O)OC[C@H]1O[C@@H](O[C@H]2[C@H](OC(=O)/C=C/C=C/C[C@H](O)/C(C)=C/C=C/CC[C@@H](C)CC)[C@@H](O)[C@@]3(OCc4cc(O)cc(O)c43)O[C@@H]2CO)[C@H](O)[C@@H](O)[C@H]1O` (stereo partly specified): the minimum inhibitory concentration (MIC) (with Candida albicans [13]; in the data set on Candida albicans [14]; against Candida albicans [15]; in the data set on Candida albicans [16]; in [17]; in the data set on Candida tropicalis [18]) was 0.1 µg/mL (≈ 0.111 µM) in each case. Moreover, the MIC against Candida tropicalis [19], in the data set with Candida parapsilosis [20], in the data set on Candida parapsilosis [21], with Cyberlindnera jadinii and against Pichia kudriavzevii [22] was 0.1 µg/mL (≈ 0.111 µM) throughout. Further, the values for the IC50 in [10], in data set [11] and in [12] were 0.02 µg/mL (≈ 0.0222 µM), over 250 µg/mL and over 250 µg/mL, respectively.
Consider `COS(=O)(=O)C[C@H]1OC(O)[C@H](NC(C)=O)[C@@H](O)[C@@H]1O` (stereo partly specified), for which the minimum inhibitory concentration (MIC) (in the data set with Candida albicans [3]; against Nakaseomyces glabratus [23]; in data set [24]; in the data set with Pichia kudriavzevii [25]) was over 4000 µg/mL in each case.
`CC(=O)N[C@H]1C(O)O[C@H](CS(=O)(=O)O)[C@@H](O)[C@@H]1O` (stereo partly specified) showed a negative logarithm of the IC50 (pIC50) in data set [26] of under 2.30. The same compound showed a minimum inhibitory concentration (MIC) in the data set with Candida albicans [3] of 500 µg/mL (≈ 1750 µM).
The like results for `N[C@H]1C(O)O[C@H](CS(=O)(=O)O)[C@@H](O)[C@@H]1O` (stereo partly specified) were, in that order, 4.10 and 1000 µg/mL (≈ 4110 µM).
As for `CN[C@@H]1[C@H](O[C@@H]2OC[C@@H](O)[C@H](O)[C@H]2O)[C@@H](O)[C@H](O[C@H]2c3cc(C)c(C(=O)N[C@H](C)C(=O)O)c(O)c3-c3c(cc4c(c3O)C(=O)c3cc(OC)cc(O)c3C4=O)[C@@H]2O)O[C@@H]1C` [PRADIMICIN A], the ED50 with Candida albicans [27] came out at 8.9 mg/kg.
For `CC(=O)[O-].CCCCCOc1ccc(-c2ccc(-c3ccc(C(=O)N[C@H]4C[C@@H](O)[C@@H](NCC[N+](C)(C)C)NC(=O)[C@@H]5[C@@H](O)[C@@H](C)CN5C(=O)[C@H]([C@@H](C)O)NC(=O)[C@H]([C@H](O)[C@@H](O)c5ccc(O)cc5)NC(=O)[C@@H]5C[C@@H](O)CN5C(=O)[C@H]([C@@H](C)O)NC4=O)cc3)cc2)cc1`, the half-life was 53.1 h in data set [28] and over 130 h in data set [29].
`CCCCCOc1ccc(-c2cc(-c3ccc(C(=O)N[C@H]4C[C@@H](O)[C@@H](O)NC(=O)[C@@H]5[C@@H](O)[C@@H](C)CN5C(=O)[C@H]([C@H](O)CC(N)=O)NC(=O)[C@H]([C@H](O)[C@@H](O)c5ccc(O)c(OS(=O)(=O)O)c5)NC(=O)[C@@H]5C[C@@H](O)CN5C(=O)[C@H]([C@@H](C)O)NC4=O)cc3)no2)cc1` [MICAFUNGIN] (X1-[Orn(4R-OH,5R-OH)]T[Hyp][hTyr(3S-OH,4S-OH,3'-OSO3H)][Gln(3R-OH)][Pro(3S-OH,4S-Me)]; lactam 1-C) had a half-life in [30] of 10 h.

For the origin of these results see ChEMBL document CHEMBL4715849, “Recent Progress in the Discovery of Antifungal Agents Targeting the Cell Wall” (J Med Chem, 2020).
